Values joined by “and” are separate entries in the source; they are usually repeats but may differ in a detail not shown here. Identical values can stand only once.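 48-hour exposure; five concentrations; linearly interpolated endpoints. At the GI50, growth is halved. At the TGI there is no net growth.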
Columns and labels:
Test in all cases: NCI-60 cell line screen, 48 h
A498 renal = system: A498 renal
CCRF-CEM leukemia = system: CCRF-CEM leukemia
HT29 colon = system: HT29 colon
K-562 leukemia = system: K-562 leukemia
KM12 colon = system: KM12 colon
NCI-H23 lung = system: NCI-H23 lung
NCI-H522 lung = system: NCI-H522 lung
SF-268 CNS = system: SF-268 CNS
TK-10 renal = system: TK-10 renal
HOP-62 NSCLC = system: HOP-62 NSCLC

Structure (SMILES)	TGI (A498 renal) [µM]	TGI (CCRF-CEM leukemia) [µM]	TGI (HT29 colon) [µM]	TGI (K-562 leukemia) [µM]	TGI (KM12 colon) [µM]	TGI (NCI-H23 lung) [µM]	TGI (NCI-H522 lung)	TGI (SF-268 CNS) [µM]	TGI (TK-10 renal) [µM]	GI50 (A498 renal) [µM]	GI50 (CCRF-CEM leukemia) [µM]	GI50 (HOP-62 NSCLC) [µM]	TGI (HOP-62 NSCLC) [µM]	GI50 (HT29 colon) [µM]	GI50 (K-562 leukemia) [µM]	GI50 (KM12 colon) [µM]	GI50 (NCI-H23 lung) [µM]	GI50 (NCI-H522 lung) [µM]	GI50 (SF-268 CNS) [µM]	GI50 (TK-10 renal) [µM]
COc1ccc(S(=O)(=O)N(C)CC(=O)O)cc1	> 100	> 100	> 100	> 100	> 100	> 100	> 100 µM	> 100	> 100	–	–	–	–	–	–	–	–	–	–	–
CC(=O)Oc1ccc(/C=N/NC(N)=S)nc1	58.9	9.43	> 100	> 100	> 100	> 100	> 100 µM	8.59	> 100	4.88	2.58	6.15	77.6	19	6	4.82	2.39	2.61	1.91	47.8
Nc1ccc(S(=O)(=O)Nc2cnc3c(Cl)cccc3n2)cc1	597	> 657	> 750	> 750	709	549	75 µM and 259 µM	704	589	–	–	24.6	188	> 82.8	36.4	99.6	> 82.4	15.2	–	> 84.7
O=C(c1ccc(Cl)cc1)C1OC12C(=O)Nc1ccccc12 (stereo not given)	36	4.71	27.5	11.2	32.5	32.9	3.97 µM	40.2	35.2	–	–	–	> 73.3	–	–	–	–	–	–	–
CC1CC[C@]2(C(=O)O)CCC3(C)C(=CCC4[C@@]5(C)CC[C@H](OS(=O)(=O)c6ccccc6)C(C)(C)C5CC[C@]43C)[C@@H]2[C@H]1C (stereo not given in full)	> 100	> 100	> 100	> 100	> 100	> 100	> 100 µM	> 100	> 100	–	–	–	> 100	–	–	–	–	–	–	–
CCOc1ccc(C(CN2CCOCC2)C(C)=O)cc1OC (stereo not given)	59	26.1	34.8	13.9	29	32.9	2.46 µM	41	31	–	–	–	40.4	–	–	–	–	–	–	–
CC1CCC2N(C1)CC1C3(O)CC45OC6(O)C(O)CCC4(C)C6CCC5C3(O)CC(O)C1(O)C2(C)O (stereo not given)	> 100	> 100	> 100	> 100	> 100	> 100	> 100 µM	> 100	> 100	–	–	–	> 100	–	–	–	–	–	–	–
Cc1c(C(=O)CSc2nc3ccccc3[nH]2)c(=O)n(-c2ccccc2)n1C	> 100	> 100	> 100	–	> 100	> 100	> 100 µM	> 100	> 100	–	–	–	> 100	–	–	–	–	–	–	–
CN(C=O)/C=C/c1cc(O)ccc1O	> 100	54.7	49.2	62.1	> 100	64.3	9.37 µM	48.5	54.1	–	–	–	> 71.5	–	–	–	–	–	–	–
